Measurements as given in paper PMC6271077, “Synthesis, Anticancer and Antibacterial Activity of Salinomycin N-Benzyl Amides” (Molecules, 2014).

Key:
BALB/3T3 = test: Antiproliferative SRB assay, normal fibroblasts BALB/3T3; type: cell-based; settings: normal murine embryonic fibroblasts, 72 h, mean ± SD, read-out: IC50 BALB/3T3 (normal cells)
Source text: Four human cancer cell lines and one normal cell line were used to evaluate anticancer activity of SAL and its N-benzyl amides: human acute promyelocytic leukemia (HL-60) and its vincristine resistant subline (HL-60/vinc), human colon adenocarcinoma cell lines sensitive (LoVo) and resistant to doxorubicin (LoVo/dx) as well as also normal murine embryonic fibroblast cell line (BALB/3T3). The BALB/3T3 cell line was purchased from the American Type Culture Collection (ATCC Rockville, MD, USA), HL-60 cell line from European Type Culture Collection by courtesy of Professor Spik and Dr Mazurier (Laboratory of Biological Chemistry USTL, Lille, France) and HL-60/vinc, LoVo and LoVo/dx by courtesy of Prof. E. Borowski (Technical University of Gdańsk, Gdańsk, Poland). All the cell lines are maintained in the Institute of Immunology and Experimental Therapy (IIET), Wrocław, Poland. […]
After 72 h of incubation with tested compounds the cells were fixed in situ by gently adding of 50 µL per well of cold 50% trichloroacetic acid TCA (Avantor Performance Materials, City, Poland) and were incubated at 4 °C for 1 h. […] Absorbance of each solution was read at Synergy H4 photometer (BioTek Instruments, Winooski, VT, USA) at 540 nm wavelength. […]

HL-60/vinc = test: Antiproliferative MTT assay, HL-60/vinc; type: cell-based, human
Source text: (§1) Four human cancer cell lines and one normal cell line were used to evaluate anticancer activity of SAL and its N-benzyl amides: human acute promyelocytic leukemia (HL-60) and its vincristine resistant subline (HL-60/vinc), human colon adenocarcinoma cell lines sensitive (LoVo) and resistant to doxorubicin (LoVo/dx) as well as also normal murine embryonic fibroblast cell line (BALB/3T3). The BALB/3T3 cell line was purchased from the American Type Culture Collection (ATCC Rockville, MD, USA), HL-60 cell line from European Type Culture Collection by courtesy of Professor Spik and Dr Mazurier (Laboratory of Biological Chemistry USTL, Lille, France) and HL-60/vinc, LoVo and LoVo/dx by courtesy of Prof. E. Borowski (Technical University of Gdańsk, Gdańsk, Poland). All the cell lines are maintained in the Institute of Immunology and Experimental Therapy (IIET), Wrocław, Poland.
(§2) Human leukemia cells were cultured in ISCOVE medium (IIET, Wroclaw, Polond) containing 10% fetal bovine serum and 2 mM L-glutamine (Sigma Aldrich) and 1 µg/100 mL […] for HL-60/vinc (Sigma Aldrich). Human colon adenocarcinoma cell lines were cultured in mixture of OptiMEM and RPMI 1640 (1:1) medium (IIET) supplemented with 5% fetal bovine serum (Thermo Fisher Scientific, Waltham, MA, USA), 2 mM L-glutamine, 1 mM sodium pyruvate (Sigma Aldrich) and 10 µg/100 mL doxorubicin for LoVo/dx (Sigma Aldrich). Murine embryonic fibroblast cells were cultured in Dulbecco medium (Gibco, Darmstadt, Germany) supplemented with 10% fetal bovine serum (Thermo Fisher Scientific) and 2 mM L-glutamine (Sigma Aldrich). All culture media contained antibiotics: 100 U/mL penicillin (Sigma Aldrich) and 100 µg/mL streptomycin (Polfa-Tarchomin, City, Poland). All cell lines were cultured during entire experiment in humid atmosphere at 37 °C and 5% CO2.
(§3) Twenty four hours before adding the tested compounds all cell lines were seeded in 96-well plates (Sarstedt, Nümbrecht, Germany) in appropriate media with 10^4 cells per well. All cell lines were exposed to each tested agent at four different concentrations from the range 100 to 0.1 µg/mL for 72 h. The cells were also exposed to the reference drugs: cisplatin (Accord, London, UK) and doxorubicin hydrochloride (Fluka, St. Louis, MO, USA). Additionally, all cell lines were exposed to DMSO (the solvent used for tested compounds, Sigma Aldrich) at the concentrations corresponding to those in the tested agent dilutions. For adherent cells sulphorodamine B assay was performed and MTT assay for leukemia cells.
(§4) Proliferation inhibition of leukemia cells by tested compounds was measured by means of MTT assay. Thus, 20 µL of 3-(4,5-dimethylthiazol-2-yl)-2,5-diphenyl tetrazolium bromide solution (Sigma Aldrich) were added to each well and plates were left in cell incubator for 4 h to allow the cells to metabolize yellow MTT to blue formazan. Then, the lysing mixture consisting of 225 mL dimethylformamide, 67.5 g sodium dodecyl sulfate (both from Sigma Aldrich) and 275 mL of distilled water was added in 80 µL volume per well. Plates were incubated for 24 h for the formazan crystals to be released from cells, dissolved and then absorbance of each well was read at Synergy H4 photometer (BioTek Instruments) at 570 nm wavelength.
(§5) Results are presented as mean IC50 (concentration of the tested compound that inhibits cell proliferation by 50%) ± standard deviation. IC50 values were calculated in Cheburator 1.0.2, Dmitry Nevozhay software for each experiment. Compounds at each concentration were tested in triplicates in single experiment and each experiment was repeated at least three times independently. The IR was defined as the ratio of IC50 for a given compound calculated for resistant cell line to that measured for its parental drug sensitive cell line (Table 4).

LoVo/dx = test: Antiproliferative SRB assay, LoVo/dx; type: cell-based, human
Source text: as §1, §2, §3
(§6) After 72 h of incubation with tested compounds the cells were fixed in situ by gently adding of 50 µL per well of cold 50% trichloroacetic acid TCA (Avantor Performance Materials, City, Poland) and were incubated at 4 °C for 1 h. Then the wells were washed four times with water and air-dried. Next, 50 µL of 0.2% solution of sulphorodamine B (Sigma Aldrich) in 1% acetic acid (Avantor Performance Materials) were added to each well and plates were incubated at room temperature for 0.5 h. After incubation time, unbound dye was removed by washing plates four times with 1% acetic acid, whereas the stain bound to cells was solubilized with 150 µL of 10 mM Tris base (Sigma Aldrich). Absorbance of each solution was read at Synergy H4 photometer (BioTek Instruments, Winooski, VT, USA) at 540 nm wavelength.
as §5

LoVo = test: Antiproliferative SRB assay, LoVo; type: cell-based, human
Source text: as §1, §2, §3, §6, §5

HL-60 = test: Antiproliferative MTT assay, HL-60; type: cell-based, human
Source text: as §1, §2, §3, §4, §5

N.N.[Cl][Pt][Cl] [cisplatin, reference compound]
IC50 (BALB/3T3): 5.3 ± 2.93 µM | IR HL-60/vinc (HL-60/vinc; IR = IC50 HL-60/vinc / IC50 HL-60): 6.87 | SI HL-60/vinc (HL-60/vinc; SI = IC50 BALB/3T3 / IC50 HL-60/vinc): 0.77 | IC50 (HL-60/vinc; vincristine-resistant subline, 72 h, MTT, mean ± SD, NA: not active in concentrations used (up to 100 µg/mL), read-out: IC50 HL-60/vinc): 6.87 ± 1.63 µM | IR LoVo/DX (LoVo/dx; IR = IC50 LoVo/dx / IC50 LoVo): 1.41 | SI LoVo/DX (LoVo/dx; SI = IC50 BALB/3T3 / IC50 LoVo/dx): 1.02 | IC50 (LoVo/dx; doxorubicin resistant subline, 72 h, SRB, mean ± SD, read-out: IC50 LoVo/dx): 5.2 ± 1.93 µM | IC50 (LoVo; 72 h, SRB, mean ± SD, read-out: IC50 LoVo): 3.7 ± 1.2 µM | SI LoVo (LoVo; SI = IC50 BALB/3T3 / IC50 LoVo): 1.43 | IC50 (HL-60; 72 h, MTT, mean ± SD, NA: not active in concentrations used (up to 100 µg/mL), read-out: IC50 HL-60): 1 ± 0.23 µM | SI HL-60 (HL-60; SI = IC50 BALB/3T3 / IC50 HL-60): 5.30
